# Test results from patent US8993556B2, “Resorcinol derivatives as HSP90 inhibitors” (priority 2009, dated 2015).
# Columns and labels:
# [1] = in vivo; settings: Mouse Balb Nu/Nu, single
# Experimental: Calibration Standards and Quality Controls were prepared spiking blank mouse plasma with appropriate working solutions.
# Sample plasma proteins were precipitated by adding 160 μL of acetonitrile/methanol 90/10 to 20 μL of mouse plasma in a 96 well plate.
# After heat sealing and mixing for 3 minutes, the plate was centrifuged for 15 minutes at 4000 rpm.
# The supernatant was considered as final extract and injected onto the LC-MS-MS system.
# • UPLC system: Waters Acquity BSM • Mobile phase A: 95:5-5 mM Ammonium Formate pH3.5: Acetonitrile • Mobile phase B: 5:95-5 mM Ammonium Formate pH3.5: Acetonitrile • Analytical column: BEH C18 50×2.1 1.7 μm • Elution conditions:
# • Total Run Time: 2.0 min. • Flow rate: 0.500 mL/min • Approximate retention time: NMS-03308086: 0.67 min. • Column oven temp: 40° C. • Autosampler type: Waters Acquity SM • Injection volume: 3 μL • Injection mode: Partial Loop with Needle Overfill • Autosampler temperature: 5° C. • MS instrument: Waters TQD • Ionisation: ES+ • Capillary: 1.5 kV • Cone: 70 V • Source Temperature: 150° C. • Desolvation Flow and Temp.: 900 L/h-400° C. • Collision Gas Flow: 0.2 mL/min • Collision Energy: 40 • MRM transitions: NMS-03308086: m/z 579.1>m/z 97.0 • Dwell Time: 0.1 seconds • LLOQ: 5.0 ng/mL • ULOQ: 5000 ng/mL • Software used: Mass Lynx 4.1 SCN627
# [2] = tested on: Her2 protein levels in BT474 breast cancer cells; experiment: Her2 Degradation Assay; type: cell-based; settings: Homo sapiens, BT-474, 8 h, read-out: Her2 Degradation IC50 (μM)
# Experimental: The potencies of the compounds of the present invention were evaluated by measuring the Her2 degradation as a marker for HSP90 inhibition.
# HSP90 is a key component of a chaperone machinery that catalyzes the folding and quality control of several proteins. Its inhibition impairs the capacity to fold or stabilize its client proteins, leading to the proteosomal dependent degradation of these unfolded proteins. […] Cellular activity of HSP90 inhibitors was assessed by measuring the induced loss of Her2 protein levels in BT474 breast cancer cells (ATCC #HTB-20). Cellular Her2 levels were measured by immunocytochemistry, and quantified using an ArrayScan vTi instrument (Cellomics Thermo Scientific).
# Cellular activity of HSP90 inhibitors was assessed by measuring the induced loss of Her2 protein levels in BT474 breast cancer cells (ATCC #HTB-20). Cellular Her2 levels were measured by immunocytochemistry, and quantified using an ArrayScan vTi instrument (Cellomics Thermo Scientific).
# Studies were performed as follows: 5000 cells/well are seeded in 96 well plates (Perkin Elmer) in DMEM/5% FCS and incubated for 48 hours at 37° C., 5% CO2.
# Medium is then replaced with fresh medium containing test compounds at the required concentration. Concentration curves are prepared in DMEM/10% FCS from compound stocks in DMSO, and final DMSO concentration is 0.1% (v/v). Duplicate wells for each concentration point are prepared, with a typical highest compound concentration of 30 μM. […] Plates are incubated for 20 minutes at room temperature, then wells are washed in PBS and cells permiabilised by incubating with PBS containing 0.3% Triton X-100 for 15 minutes at room temperature. Non-specific binding sites are blocked by incubating wells for 1 hour in PBS containing 3% (w/v) BSA. Wells are then incubated for 1 hour at room temperature in PBS containing anti Her2 mouse monoclonal (Anti-c-ErbB2/c-Neu, Mouse mAb 3B5, Calbiochem Cat N^o OP15) diluted 1:100 in 1% (w/v) BSA. […] After washing a further 3 times in PBS, cellular Her2 immunoreactivity is assessed using the ArrayScan vTi instrument, with a Zeiss 10× 0.5 N.A. objective, and applying the Cytotoxity.V3 algorithm (Cellomics/Thermo Fisher) with a XF100 filter. At least 10 fields, corresponding to at least 900 cells, are read for each well.
# IC50 is the response; IC50 starts at Bottom and goes to Top with a sigmoid shape. In Vitro Cell Proliferation Assay
# [3] = tested on: human ovarian carcinoma cell line A2780 transplanted in immunodeficient mice; experiment: In Vivo Antitumor Efficacy; set-up: species or system mouse; settings: A2780 in athymic mice
# Experimental: Antitumor activity of HSP90 inhibitors was assessed in vivo using the human ovarian carcinoma cell line A2780 transplanted in immunodeficient mice.
# Balb Nu/Nu, male mice, (athymic mice) from Harlan, Italy, were maintained in cages with paper filter covers, food and bedding sterilized and water acidified. A2780 tumors were maintained in vivo by serial transplantation and, at the time of efficacy experiments, implanted subcutaneously in athymic mice. The treatments started 8 days later when the tumors were palpable. HSP90 inhibitors were prepared immediately before use and administered intravenously in a volume of 10 ml/kg at different doses.
# Tumor growth was assessed by caliper. The two diameters were recorded, and the tumor weight was calculated according to the following formula: length (mm)×width^2 (mm)/2. The effect of the antitumor treatment was determined as tumor growth inhibition (TGI %) of treated group respect to vehicle treated controls.
# [4] = target: His-HSP90 N-term domain; experiment: Determination of KD Via Biacore; type: binding; settings: Biacore T100
# Experimental: The evaluation of the binding affinity (KD) of the compounds of formula (I) to the HSP90 protein was done using Biacore T100.
# His-HSP90 N-term domain was immobilized by capture of his tag by the Ab previously covalently bound to the chip (CM5) surface.
# The compounds were analyzed using the following running buffer: 20 mM Tris/HCl pH 7.6, 150 mM KCl, 5 mM MgCl2, 0.05% P20 and 1% DMSO. The flow rate was 50 ul/min with and association time of 60 seconds.
# The cpds were diluted in running buffer from 100× stock solution; the different conc injected were obtained from a sequential dilution in order to have the same DMSO conc. in each sample and avoid any solvent correction.
# [5] = tested on: A2780 human ovarian cells; experiment: In Vitro Cell Proliferation Assay; type: cell-based; settings: Homo sapiens, A2780, 72 h, read-out: A2780 Proliferation IC50 (μM)
# Experimental: The cells were incubated at 37° C. and 5% CO2 and after 72 hours the plates were processed using CellTiter-Glo assay (Promega) following the manufacturer's instruction.
# CellTiter-Glo is a homogenous method based on the quantification of the ATP present, an indicator of metabolically active cells. ATP is quantified using a system based on luciferase and D-luciferin resulting into light generation. The luminescent signal is proportional to the number of cells present in culture.
# Briefly 25 μL/well reagent solution are added to each wells and after 5 minutes shacking microplates are red by a luminometer. The luminescent signal is proportional to the number of cells present in culture.
SMILES,"clearance ([1]; 10 mg/kg IV bolus, read-out: CL (mL/h/kg) Plasma clearance (converted)) [mL/h/kg]","half-life ([1]; 10 mg/kg IV bolus, read-out: T1/2 (h) Terminal half-life (converted)) [h]","Vd ([1]; 10 mg/kg IV bolus, read-out: Vdss (mL/kg) Volume of distribution at steady state) [mL/kg]","bioavailability ([1]; 10 mg/kg oral vs 10 mg/kg IV, read-out: F % Oral bioavailability) [%]",IC50 [2] [µM],TGI ([3]; intravenously at 40 mkg/kg every three days) [%],Kd [4] [nM],IC50 [5] [µM],TGI ([3]; intravenously at 30 mg/Kg daily) [%]
"CN1CCC(NC(=O)c2cc(-c3c(O)cc(O)cc3Oc3ccc(N(C)C)cc3)no2)CC1 [3-{2-[4-(Dimethylamino)phenoxy]-4,6-dihydroxyphenyl}-N-(1-methylpiperidin-4-yl)isoxazole-5-carboxamide]",3430,5.12,12500,25,0.008,88,0.066,0.03,
"CN(C)c1ccc(Oc2cc(O)cc(O)c2-c2cc(C(=O)NC3CCN(C4CCC5(CC4)OCCCO5)CC3)no2)cc1 [5-{2-[4-(Dimethylamino)phenoxy]-4,6-dihydroxyphenyl}-N-[1-(1,5-dioxaspiro[5.5]undec-9-yl)piperidin-4-yl]isoxazole-3-carboxamide]",,,,,0.038,,0.079,0.021,92
